Test: Sensory comparison of flavored products with the flavor not according to the invention
Type: in vivo

CCC1OC(C)(CC)CCC1C(C)C (stereo not shown) [2,6-diethyl-5-isopropyl-2-methyl-tetrahydropyran]
feeling of freshness (standard chewing gum (Example 2.12), 2% flavor composition): more intense feeling of freshness
fullness in the mouth (standard chewing gum (Example 2.12), 2% flavor composition, in particular at the start of chewing): greater fullness in the mouth
boost effect (sugar-free chewing gum (Example 2.11), 1% cinnamon type cool flavor): distinct “boost effect”
feeling of freshness (sugar-free chewing gum (Example 2.11), 1% flavor composition, in particular initial phase of consumption): more intense feeling of freshness
feeling in the mouth (toothpaste 'silica opaque' (Example 2.15), 1% flavor composition): fresher feeling in the mouth
fullness in the mouth (toothpaste 'silica opaque' (Example 2.15), 1% flavor composition, during brushing): increased fullness in the mouth
feeling of freshness (toothpaste, phosphate base (Example 2.13), 1% flavor composition, in particular at the start of brushing): distinct feeling of freshness
effect of the flavor when brushing (toothpaste, phosphate base (Example 2.13), 1% spearmint type flavor): intensified effect of the flavor when brushing
retronasal cooling (toothpaste, transparent gel (Example 2.14), 1% flavor composition): distinct retronasal cooling
freshness profile (toothpaste, transparent gel (Example 2.14), 1% flavor composition, during brushing): clearer freshness profile

— patent US8242289B2, “Alkyl-substituted tetrahydropyrans as flavoring substances” (SYMRISE AG, priority 2009, dated 2012)
